This passage reports IC50 results from BindingDB's records for doi:10.1016/j.bmcl.2007.07.021 (Boehringer Ingelheim Pharmaceuticals, 2007).

This assay concerns the target T1, Mineralocorticoid receptor (Homo sapiens, UniProt P08235).
T1 sequence (P08235 whole entry): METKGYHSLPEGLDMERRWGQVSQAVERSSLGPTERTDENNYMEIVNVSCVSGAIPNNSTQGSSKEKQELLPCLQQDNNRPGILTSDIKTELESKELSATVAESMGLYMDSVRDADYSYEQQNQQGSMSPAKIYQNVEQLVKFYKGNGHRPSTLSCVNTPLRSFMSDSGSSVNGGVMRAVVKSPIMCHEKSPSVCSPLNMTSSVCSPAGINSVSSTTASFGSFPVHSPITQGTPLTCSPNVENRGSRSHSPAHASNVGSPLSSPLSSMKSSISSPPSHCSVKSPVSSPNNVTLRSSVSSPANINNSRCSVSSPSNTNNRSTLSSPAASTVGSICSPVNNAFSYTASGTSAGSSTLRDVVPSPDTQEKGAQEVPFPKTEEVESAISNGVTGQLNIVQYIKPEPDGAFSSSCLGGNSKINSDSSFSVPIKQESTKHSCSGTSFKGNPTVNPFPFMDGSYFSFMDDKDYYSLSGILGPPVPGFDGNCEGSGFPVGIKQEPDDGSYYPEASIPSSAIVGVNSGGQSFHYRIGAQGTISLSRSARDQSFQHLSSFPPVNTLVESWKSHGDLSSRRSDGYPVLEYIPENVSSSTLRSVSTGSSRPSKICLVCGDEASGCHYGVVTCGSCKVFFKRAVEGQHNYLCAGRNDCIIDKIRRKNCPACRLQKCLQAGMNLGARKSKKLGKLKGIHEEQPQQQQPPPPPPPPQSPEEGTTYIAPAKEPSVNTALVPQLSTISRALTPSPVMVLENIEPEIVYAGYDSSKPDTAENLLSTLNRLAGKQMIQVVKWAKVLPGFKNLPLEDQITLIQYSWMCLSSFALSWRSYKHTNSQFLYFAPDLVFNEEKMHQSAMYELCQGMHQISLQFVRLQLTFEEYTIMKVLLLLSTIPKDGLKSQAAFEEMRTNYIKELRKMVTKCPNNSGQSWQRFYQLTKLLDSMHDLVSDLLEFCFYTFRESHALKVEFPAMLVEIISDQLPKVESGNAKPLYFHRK
Description: Fluorescence Polarization Competitive Binding Assay. The text has this:
IC50 values shown are means of a single experiment done in duplicate 11-point concentration-effect curves.
A general note: Polarisation of emitted light reports the rotation of a fluorescent probe.

The compound `C=CCOC(C)C1=CC(C)(C)Nc2ccc(-c3ccccc3OC)cc21` (stereo unspecified) [6-(2-methoxyphenyl)-2,2-dimethyl-4-[1-(prop-2-en-1-yloxy)ethyl]-1,2-dihydroquinoline] yielded an IC50 of 0.97 µM.

Broadly, the IC50 is the point on the concentration scale where inhibition reaches its midpoint. Read a high IC50 as a need for much substance.
